Bounds are passed on as bounds.

As usually defined, the IC50 is the point on the concentration scale where inhibition reaches its midpoint.

In experiment [1] the test system is LPS-induced lethality in mice. The settings on record: cited from earlier work.
For experiment [2], the target named is T1, human recombinant MMP-1 catalytic domain (Homo sapiens, UniProt P03956).
T1 construct: a panel of ten human recombinant MMP catalytic domains; purchased Enzo Life Sciences BML-AK016
T1 sequence (P03956 100-269 limits assumed): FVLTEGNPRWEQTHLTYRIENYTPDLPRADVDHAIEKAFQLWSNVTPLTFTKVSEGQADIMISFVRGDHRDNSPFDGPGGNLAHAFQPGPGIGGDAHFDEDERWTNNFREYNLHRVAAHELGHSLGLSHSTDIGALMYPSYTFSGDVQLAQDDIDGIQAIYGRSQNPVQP
The experiment can be described thus: Recombinant MMP fluorescent assay kit (OmniMMP substrate). In kind it is biochemical. The method, then:
(§1) The specificity of the synthesized inhibitor was determined in vitro against a panel of ten human recombinant MMP catalytic domains using a fluorescent assay kit (BML-AK016, Enzo Life Sciences). Briefly, the compound was dissolved in dimethyl sulfoxide (DMSO) and further diluted in assay buffer (50 mM HEPES, 10 mM CaCl2, 0.05% Brij-35, and pH 7.5). Ten MMPs (MMP-1, MMP-2, MMP-3, MMP-7, MMP-8, MMP-9, MMP-10, MMP-12, MMP-13, and MMP-14) were individually incubated with varying concentrations of inhibitor for one hour at 37°C, followed by addition of a quenched fluorogenic substrate (OmniMMP fluorogenic substrate Mca-Pro-Leu-Gly-Leu-Dpa-Ala-Arg-NH2 [Mca is (7-methoxycoumarin-4-yl)-acetyl; Dpa is N-3-(2,4-dinitrophenyl)-L-α-β-diaminopropionyl], 4 μM in assay). […] After each fluorescent measurement the well plates were shaken for 2 sec to agitate the reagents. In each experiment we included a blank, a substrate control (substrate only in assay buffer), a positive control (NNGH, 1.3 μM final concentration), and negative control (only substrate and inhibitor in assay buffer). The latter was implemented to exclude possible interference of the inhibitor with the substrate. […] The IC50 values were determined in a single experimental run in duplicate. Data analysis and curve fitting for determination of IC50 values were performed in GraphPad Prism 6.

Experiment [3] addresses T2, human recombinant MMP-10 catalytic domain (Homo sapiens, UniProt P09238).
T2 construct: a panel of ten human recombinant MMP catalytic domains; purchased Enzo Life Sciences BML-AK016
The description is as above. Type of experiment: biochemical. How it is done:
as §1

For experiment [4], the target named is T3, human recombinant MMP-13 catalytic domain (Homo sapiens, UniProt P45452).
T3 construct: a panel of ten human recombinant MMP catalytic domains; purchased Enzo Life Sciences BML-AK016
Described as above. In kind it is biochemical. The method, then:
as §1

For experiment [5], the target named is T4, human recombinant MMP-14 catalytic domain (Homo sapiens, UniProt P50281).
T4 construct: a panel of ten human recombinant MMP catalytic domains; purchased Enzo Life Sciences BML-AK016
The experiment is described as above. Type of experiment: biochemical. The method, then:
as §1

In experiment [6] the target is T5, human recombinant MMP-2 catalytic domain (Homo sapiens, UniProt P08253).
T5 construct: a panel of ten human recombinant MMP catalytic domains; purchased Enzo Life Sciences BML-AK016
Described as above. In kind it is biochemical. The method, then:
as §1

Experiment [7] concerns the target T6, human recombinant MMP-3 catalytic domain (Homo sapiens, UniProt P08254).
T6 construct: a panel of ten human recombinant MMP catalytic domains; purchased Enzo Life Sciences BML-AK016
The description is as above. In kind it is biochemical. The method, then: as §1

In experiment [8] the target is T7, human recombinant MMP-7 catalytic domain (Homo sapiens, UniProt P09237).
T7 construct: a panel of ten human recombinant MMP catalytic domains; purchased Enzo Life Sciences BML-AK016
T7 sequence (P09237 95-267): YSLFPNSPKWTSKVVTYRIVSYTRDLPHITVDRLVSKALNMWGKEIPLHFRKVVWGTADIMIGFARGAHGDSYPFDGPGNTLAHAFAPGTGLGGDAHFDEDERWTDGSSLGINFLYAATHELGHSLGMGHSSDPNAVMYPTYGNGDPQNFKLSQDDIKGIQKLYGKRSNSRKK
The experiment is described as above. Type of experiment: biochemical. How it is done: as §1

Experiment [9] concerns the target T8, human recombinant MMP-8 catalytic domain (Homo sapiens, UniProt P22894).
T8 construct: a panel of ten human recombinant MMP catalytic domains; purchased Enzo Life Sciences BML-AK016
Described as above. In kind it is biochemical. The method, then: as §1

The target in experiment [10] is T9, human recombinant MMP-9 catalytic domain (Homo sapiens, UniProt P14780).
T9 construct: a panel of ten human recombinant MMP catalytic domains; purchased Enzo Life Sciences BML-AK016
The experiment is described as above. Type of experiment: biochemical. How it is done: as §1

In experiment [11] the target is T10, human recombinant MMP-12 catalytic domain (Homo sapiens, UniProt P39900).
T10 construct: human recombinant MMP-3 (72006, AnaSpec) and MMP-12 catalytic domains (55525-1, AnaSpec); purchased AnaSpec 55525-1
Briefly: Recombinant MMP fluorescent assay kit (OmniMMP substrate), initial screen. The settings on record: pH 7.5, 1 h incubation at 37°C, OmniMMP substrate 4 μM, read-out: apparent IC50 MMP-12 (initial screen). Type of experiment: biochemical. How it is done: as §1

For experiment [12], the target named is T10, human recombinant MMP-12 catalytic domain. The experiment can be described thus: Detailed dose-response with Substrate XIII (AnaSpec) quenched fluorescent substrate. Type of experiment: biochemical. How it is done: […] Briefly, the compound was dissolved in dimethyl sulfoxide (DMSO) and further diluted in assay buffer (50 mM HEPES, 10 mM CaCl2, 0.05% Brij-35, and pH 7.5). […] In each experiment we included a blank, a substrate control (substrate only in assay buffer), a positive control (NNGH, 1.3 μM final concentration), and negative control (only substrate and inhibitor in assay buffer). The latter was implemented to exclude possible interference of the inhibitor with the substrate. […] The IC50 values were determined in a single experimental run in duplicate. Data analysis and curve fitting for determination of IC50 values were performed in GraphPad Prism 6.

Experiment [13] concerns LPS-induced lethality in C57BL/6 mice. The experiment can be described thus: Endotoxemia model: survival after lethal LPS challenge. In kind it is in vivo, mouse. The note with it: 100 μg i.p. 15 min before and 3 and 6 h after LPS 200 μg/20 g i.p. (LD100), log-rank test. From the text: Female C57BL/6J (8–10 weeks old) mice were purchased from Janvier Labs (France) and MMP-12 knockout mice (MMP-12^−/−) (in C57BL/6J background together with littermate MMP-12^+/+ controls) were obtained from Dr. Steven Shapiro (University of Pittsburgh, USA). C57BL/6 and MMP-12^−/− mice were housed with 4–6 mice/cage with ad libitum access to food and water and with a 14-hour light/10-hour dark cycle in a specific pathogen-free animal facility and conventional facility, respectively. All experiments were approved by the Ethics Committee of the Faculty of Sciences of Ghent University.
Endotoxemia was induced by intraperitoneal (i.p.) injection of lipopolysaccharide (LPS) from Salmonella enterica serotype abortus equi (Sigma) dissolved in PBS. […] Control animals received i.p. injections of PBS. Rectal temperature was measured periodically after challenge. 100 μg MMP-12i (1 μg/μL) or vehicle control was administered intraperitoneally at different time points: 15 min before and 3 and 6 hours after LPS administration.

In experiment [14] the test system is primary mouse choroid plexus epithelial cells. Briefly: Blood-CSF barrier permeability in vitro (ECIS impedance). Type of experiment: cell-based. The note with it: 1 μM inhibitor 1 hour before LPS 1000 ng/mL; n = 3. The method, then:
Culturing primary mouse choroid plexus epithelial cells was done as described. In brief, 2–9-day-old pups were decapitated and brains were isolated. Choroid plexuses from all four ventricles were isolated under a dissection microscope. The cells were dissociated enzymatically by incubating them for 5–7 min with pronase (isolated from Streptomyces griseus, Sigma). Digestion was stopped by adding an excess of HBSS buffer and the cells were washed twice with HBSS. The cell pellet was resuspended in DMEM-F12 culture medium and plated on laminin-coated plates. Two days later, they were shifted to DMEM-F12 containing cytosine arabinoside (Ara-C) to eliminate growth of fibroblasts. Cultures were maintained at 37°C in 5% CO2. Purity of the cultures was confirmed by checking the levels of transthyretin (TTR) both by qPCR and by immunostaining. Primary CPE cells retained the epithelial and the barrier properties which were confirmed by staining for E-cadherin, ZO-1, and occludin. The electric cell-substrate impedance (ECIS) technique (Applied Biophysics) was used to monitor barrier properties as described before. 250.000 cells per well were seeded onto laminin-coated 8W10E array plates (Applied Biophysics) and the array holder was placed in a standard cell culture incubator (37°C, 100% humidity, and 5% CO2). Array plates were connected to the instrument and multifrequency measurements were started. […]

T10 sequence (P39900 106-263 limits assumed): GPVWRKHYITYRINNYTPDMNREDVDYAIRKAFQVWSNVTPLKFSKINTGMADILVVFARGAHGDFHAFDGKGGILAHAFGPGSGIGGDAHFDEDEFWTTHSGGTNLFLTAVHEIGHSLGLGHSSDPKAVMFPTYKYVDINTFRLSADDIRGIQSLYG
T2 sequence (P09238 99-263 limits assumed): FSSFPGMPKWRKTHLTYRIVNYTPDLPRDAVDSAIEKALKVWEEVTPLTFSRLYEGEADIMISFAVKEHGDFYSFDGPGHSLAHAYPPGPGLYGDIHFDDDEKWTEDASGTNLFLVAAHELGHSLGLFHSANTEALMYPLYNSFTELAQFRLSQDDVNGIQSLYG
T5 sequence (P08253 110-446 limits assumed): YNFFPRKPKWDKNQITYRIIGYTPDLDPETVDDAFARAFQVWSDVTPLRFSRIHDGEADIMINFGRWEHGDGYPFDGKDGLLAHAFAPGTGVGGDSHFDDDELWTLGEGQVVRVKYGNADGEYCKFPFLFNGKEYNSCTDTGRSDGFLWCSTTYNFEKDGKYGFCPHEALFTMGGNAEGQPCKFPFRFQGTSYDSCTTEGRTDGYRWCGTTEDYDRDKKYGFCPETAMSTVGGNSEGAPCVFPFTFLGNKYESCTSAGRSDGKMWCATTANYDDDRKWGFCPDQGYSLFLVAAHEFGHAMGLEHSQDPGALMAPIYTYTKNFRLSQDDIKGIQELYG
T6 sequence (P08254 100-272 limits assumed): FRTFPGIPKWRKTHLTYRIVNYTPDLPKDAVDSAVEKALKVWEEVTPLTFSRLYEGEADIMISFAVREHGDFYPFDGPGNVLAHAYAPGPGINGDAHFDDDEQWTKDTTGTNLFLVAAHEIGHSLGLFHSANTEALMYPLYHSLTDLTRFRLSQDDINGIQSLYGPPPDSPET
T8 sequence (P22894 100-262 limits assumed): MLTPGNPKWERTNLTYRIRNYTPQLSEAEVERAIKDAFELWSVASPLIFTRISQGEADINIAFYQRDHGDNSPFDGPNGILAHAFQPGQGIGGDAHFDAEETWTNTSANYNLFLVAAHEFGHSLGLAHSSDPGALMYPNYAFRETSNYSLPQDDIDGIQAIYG
T9 sequence (P14780 107-444 limits assumed): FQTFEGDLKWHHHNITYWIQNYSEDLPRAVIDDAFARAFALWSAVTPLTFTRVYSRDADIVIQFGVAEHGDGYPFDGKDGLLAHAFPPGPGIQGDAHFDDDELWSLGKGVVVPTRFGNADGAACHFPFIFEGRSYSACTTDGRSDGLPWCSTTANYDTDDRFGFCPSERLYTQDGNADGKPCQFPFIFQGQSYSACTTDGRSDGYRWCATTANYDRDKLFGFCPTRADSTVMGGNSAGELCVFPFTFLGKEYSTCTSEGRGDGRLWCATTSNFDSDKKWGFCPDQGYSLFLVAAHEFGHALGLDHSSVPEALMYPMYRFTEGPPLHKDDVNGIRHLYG

For the compound `CNC(=O)[C@H](Cc1ccccc1)NC(=O)[C@H](CC(C)C)[C@H](CSc1cccs1)C(=O)NO` [BB-94], the “protection from LPS-induced lethality” value in experiment [1] was “protected from LPS-induced lethality”.

For `Cc1cc(=O)c(O)c(C(=O)NCc2ccc(-c3ccc(-c4ccccc4)cc3)cc2)o1` [Compound 9, N-([1,1′:4′,1′′-Terphenyl]-4-ylmethyl)-3-hydroxy-6-methyl-4-oxo-4H-pyran-2-carboxamide], the IC50 in experiment [2] is more than 50 µM; in experiment [3] it was more than 50 µM; in experiment [4], more than 50 µM; in experiment [5], 2 to 50 µM; in [6], 2 to 50 µM; in experiment [7], more than 50 µM. Also, the IC50 in experiment [8] was more than 50 µM; in experiment [9], 2 to 50 µM; in [10], more than 50 µM; in experiment [11], less than 2000 nM; in experiment [12] (Figure 1(c) fitted dose-response curve, read-out: log(IC50) MMP-12 (converted)), 177 nM; in experiment [12] (Substrate XIII (AnaSpec), nonlinear regression of dose-response curve, read-out: relative IC50 MMP-12), 177 nM. Also, in [12] (Substrate XIII (AnaSpec), nonlinear regression), the “inhibitory plateau at higher inhibitor concentrations, MMP-12” value is on record as 72 ± 1.75%. Further, the “LPS-induced lethality (survival) vs vehicle” value in experiment [13] was “significant reduction in LPS-induced lethality”. The “LPS-induced drop in normalized resistance (ECIS, low frequency)” value in experiment [14] is recorded as “significantly reduced”.

The record behind these values is publication PMC4550771, “Synthesis and Validation of a Hydroxypyrone-Based, Potent, and Specific Matrix Metalloproteinase-12 Inhibitor with Anti-Inflammatory Activity In Vitro and In Vivo” (Mediators of Inflammation, 2015).
